According to patent US9758537B2 (Achillion Pharmaceuticals, Inc., priority 2014, dated 2017):

Target: Human factor D (Homo sapiens (Human), UniProt P00746)
Experiment: Human Factor D Assay
Assay type: biochemical
Conditions: human factor D 80 nM, substrate Z-L-Lys-SBzl, DTNB, OD405
Procedure: Human factor D (purified from human serum, Complement Technology, Inc.) at 80 nM final concentration is incubated with test compound at various concentrations for 5 minutes at room temperature in 50 mM Tris, 1M NaCl, pH 7.5. A synthetic substrate Z-L-Lys-SBzl and DTNB (Ellman's reagent) are added to final concentrations of 10 μM each. The increase in color is recorded at OD405 nm in a microplate in kinetic mode over 30 minutes with 30 second time points in a […]. IC50 values are calculated by non-linear regression from the percentage of inhibition of complement factor D activity as a function of test compound concentration.

Sequence of Human factor D (P00746 26-253): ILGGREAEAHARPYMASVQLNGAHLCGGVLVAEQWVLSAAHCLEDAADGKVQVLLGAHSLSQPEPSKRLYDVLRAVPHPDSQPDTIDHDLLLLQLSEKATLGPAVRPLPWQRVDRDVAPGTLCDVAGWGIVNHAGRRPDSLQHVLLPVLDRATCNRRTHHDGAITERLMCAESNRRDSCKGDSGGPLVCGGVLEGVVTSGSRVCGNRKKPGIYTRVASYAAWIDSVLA

SMILES | IC50 [nM]
CC(C)(C)OC(=O)N[C@@H](Cc1c[nH]c2ccccc12)C(=O)N1C[C@H](F)C[C@H]1C(=O)NCc1cccc(Cl)c1F [Compound 38, tert-butyl (S)-1-((2S,4R)-2-(3-chloro-2-fluorobenzylcarbamoyl)-4-fluoropyrrolidin-1-yl)-3-(1H-indol-3-yl)-1-oxopropan-2-ylcarbamate] | > 10000
O=C(NCc1cccc(Cl)c1F)[C@@H]1C[C@@H](F)CN1C(=O)Cn1cc([N+](=O)[O-])c2ccccc21 [Compound 46, (2S,4R)-N-(3-chloro-2-fluorobenzyl)-4-fluoro-1-(2-(3-nitro-1H-indol-1-yl)acetyl)pyrrolidine-2-carboxamide] | < 1000
CC(=O)Nc1cn(CC(=O)N2C[C@H](F)C[C@H]2C(=O)NCc2cccc(Cl)c2F)c2ccccc12 [Compound 47, (2S,4R)-1-(2-(3-acetamido-1H-indol-1-yl)acetyl)-N-(3-chloro-2-fluorobenzyl)-4-fluoropyrrolidine-2-carboxamide] | < 1000
CC(=O)c1cn(CC(=O)N2C[C@H](F)C[C@H]2C(=O)Nc2cccc(SC(F)(F)F)c2)c2cc(O)ccc12 [Compound 48, (2S,4R)-1-(2-(3-acetyl-6-hydroxy-1H-indol-1-yl)acetyl)-4-fluoro-N-(3-(trifluoromethylthio)phenyl)pyrrolidine-2-carboxamide] | < 1000
CC(=O)Nc1ccc(C(=O)N2C[C@H](F)C[C@H]2C(=O)NCc2cccc(Cl)c2F)cn1 [Compound 51, (2S,4R)-1-(6-acetamidonicotinoyl)-N-(3-chloro-2-fluorobenzyl)-4-fluoropyrrolidine-2-carboxamide] | > 10000
CC(=O)c1cn(C(C)C(=O)N2C[C@H](F)C[C@H]2C(=O)NCc2cccc(Cl)c2F)c2ccccc12 (stereo partly drawn) [Compound 55] | > 10000
CCOP(=O)(OCC)c1cc(Cl)c(F)c(CNC(=O)[C@@H]2C[C@@H](F)CN2C(=O)Cn2cc(C(C)=O)c3ccccc32)c1 [Compound 61] | < 1000
CC(=O)c1cn(CC(=O)N2[C@@H]3CCC[C@@H]3C[C@H]2C(=O)NCc2cccc(Cl)c2F)c2cc(O)ccc12 [Compound 62] | < 1000
CC(=O)c1cn(CC(=O)N2C[C@H](F)C[C@H]2C(=O)NCc2cc(P(=O)(O)O)cc(Cl)c2F)c2ccccc12 [Compound 63, 3-(((2S,4R)-1-(2-(3-acetyl-1H-indol-1-yl)acetyl)-4-fluoropyrrolidine-2-carboxamido)methyl)-5-chloro-4-fluorophenylphosphonic acid] | < 1000
O=C(O)CCC(=O)N1CCc2c(n(CC(=O)N3C[C@H](F)C[C@H]3C(=O)NCc3cccc(Cl)c3F)c3ccccc23)C1 [Compound 72, 4-(9-(2-((2S,4R)-2-(3-chloro-2-fluorobenzylcarbamoyl)-4-fluoropyrrolidin-1-yl)-2-oxoethyl)-3,4-dihydro-1H-pyrido[3,4-b]indol-2(9H)-yl)-4-oxobutanoic acid] | > 10000
O=C(NCc1cccc(Cl)c1F)[C@@H]1C[C@@H](F)CN1C(=O)Cn1nc(-c2cn[nH]c2)c2ccncc21 [Compound 73, (2S,4R)-1-(2-(3-(1H-pyrazol-4-yl)-1H-pyrazolo[3,4-c]pyridin-1-yl)acetyl)-N-(3-chloro-2-fluorobenzyl)-4-fluoropyrrolidine-2-carboxamide] | < 1000
NC(=O)c1nn(CC(=O)N2[C@@H]3C[C@@H]3C[C@H]2C(=O)Nc2cccc(-c3ccccc3Cl)c2F)cc1Br [Compound 77, (1R,3S,5R)-2-(2-(4-bromo-3-carbamoyl-1H-pyrazol-1-yl)acetyl)-N-(2′-chloro-2-fluorobiphenyl-3-yl)-2-azabicyclo[3.1.0]hexane-3-carboxamide] | < 1000
CC(=O)c1cn(CC(=O)N2C[C@H](F)C[C@H]2C(=O)Nc2cccc(-c3ccccc3Cl)c2F)c2c(C#N)cccc12 [Compound 79, (2S,4R)-1-(2-(3-acetyl-7-cyano-1H-indol-1-yl)acetyl)-N-(2′-chloro-2-fluorobiphenyl-3-yl)-4-fluoropyrrolidine-2-carboxamide] | < 1000
NC(=O)c1nn(CC(=O)N2C[C@H](F)C[C@H]2C(=O)Nc2cccc(-c3cc(F)c(F)cc3Cl)c2F)c2ccccc12 [Compound 80, 1-(2-((2S,4R)-2-(2′-chloro-2,4′,5′-trifluorobiphenyl-3-ylcarbamoyl)-4-fluoropyrrolidin-1-yl)-2-oxoethyl)-1H-indazole-3-carboxamide] | < 1000
CC(=O)c1cn(CC(=O)N2C[C@H](F)C[C@H]2C(=O)Nc2cccc(Br)n2)c2ccc(C3(N4C(=O)c5ccccc5C4=O)CC3)cc12 [Compound 81, (2S,4R)-1-(2-(3-acetyl-5-(1-(1,3-dioxoisoindolin-2-yl)cyclopropyl)-1H-indol-1-yl)acetyl)-N-(6-bromopyridin-2-yl)-4-fluoropyrrolidine-2-carboxamide] | < 1000
CC(=O)c1cn(CC(=O)N2C[C@H](F)C[C@H]2C(=O)Nc2cccc(-c3cc(F)c(F)cc3Cl)c2F)c2ccccc12 [Compound 82, (2S,4R)-1-(2-(3-acetyl-1H-indol-1-yl)acetyl)-N-(2′-chloro-2,4′,5′-trifluorobiphenyl-3-yl)-4-fluoropyrrolidine-2-carboxamide] | < 1000

Next, values leading:

IC50 [nM] | SMILES
> 10000 | N[C@@H](Cc1c[nH]c2ccccc12)C(=O)N1C[C@H](F)C[C@H]1C(=O)NCc1cccc(Cl)c1F [Compound 39, (2S,4R)-1-((S)-2-amino-3-(1H-indol-3-yl)propanoyl)-N-(3-chloro-2-fluorobenzyl)-4-fluoropyrrolidine-2-carboxamide]
> 10000 | O=C(NCc1cccc(Cl)c1F)[C@@H]1C[C@@H](F)CN1C(=O)c1csc(-c2cccnc2)n1 [Compound 50, (2S,4R)-N-(3-chloro-2-fluorobenzyl)-4-fluoro-1-(2-(pyridin-3-yl)thiazole-4-carbonyl)pyrrolidine-2-carboxamide]
< 1000 | O=C(NCc1cccc(Cl)c1F)[C@@H]1C[C@@H](F)CN1C(=O)Cn1nc(I)c2ccncc21 [Compound 52, (2S,4R)-N-(3-chloro-2-fluorobenzyl)-4-fluoro-1-(2-(3-iodo-1H-pyrazolo[3,4-c]pyridin-1-yl)acetyl)pyrrolidine-2-carboxamide]
< 1000 | O=C(NCc1cccc(Cl)c1F)[C@@H]1C[C@@H](F)CN1C(=O)Nc1cn(C(=O)C2CC2)c2ccccc12 [Compound 54, (2S,4R)-N2-(3-chloro-2-fluorobenzyl)-N1-(1-(cyclopropanecarbonyl)-1H-indol-3-yl)-4-fluoropyrrolidine-1,2-dicarboxamide]
> 10000 | CC(=O)c1cn(C(C)(C)C(=O)N2C[C@H](F)C[C@H]2C(=O)NCc2cccc(Cl)c2F)c2ccccc12 [Compound 56]
> 10000 | O=C(NCc1cccc(Cl)c1F)[C@@H]1C[C@@H](F)CN1C(=O)CN1C=NS(=O)(=O)c2ccccc21 [Compound 65, (2S,4R)-N-(3-chloro-2-fluorobenzyl)-1-(2-(1,1-dioxido-4H-benzo[e][1,2,4]thiadiazin-4-yl)acetyl)-4-fluoropyrrolidine-2-carboxamide]
> 10000 | CC(C)(C)OC(=O)N1CCc2c(n(CC(=O)N3C[C@H](F)C[C@H]3C(=O)NCc3cccc(Cl)c3F)c3ccccc23)C1 [Compound 67, tert-butyl 9-(2-((2S,4R)-2-(3-chloro-2-fluorobenzylcarbamoyl)-4-fluoropyrrolidin-1-yl)-2-oxoethyl)-3,4-dihydro-1H-pyrido[3,4-b]indole-2(9H)-carboxylate]
> 10000 | O=C(NCc1cccc(Cl)c1F)[C@@H]1C[C@@H](F)CN1C(=O)Cn1c2c(c3ccccc31)CCNC2 [Compound 68, (2S,4R)-N-(3-chloro-2-fluorobenzyl)-1-(2-(3,4-dihydro-1H-pyrido[3,4-b]indol-9(2H)-yl)acetyl)-4-fluoropyrrolidine-2-carboxamide]
> 10000 | CCOC(=O)CC(=O)N1CCc2c(n(CC(=O)N3C[C@H](F)C[C@H]3C(=O)NCc3cccc(Cl)c3F)c3ccccc23)C1 [Compound 70, ethyl 3-(9-(2-((2S,4R)-2-(3-chloro-2-fluorobenzylcarbamoyl)-4-fluoropyrrolidin-1-yl)-2-oxoethyl)-3,4-dihydro-1H-pyrido[3,4-b]indol-2(9H)-yl)-3-oxopropanoate]
> 10000 | CC(=O)n1cc(C(=O)C(=O)N2C[C@H](F)C[C@H]2C(=O)NCc2cccc(Cl)c2F)c2ccccc21 [Compound 71, (2S,4R)-1-(2-(1-acetyl-1H-indol-3-yl)-2-oxoacetyl)-N-(3-chloro-2-fluorobenzyl)-4-fluoropyrrolidine-2-carboxamide]
< 1000 | C=C(F)c1nn(CC(=O)N2C[C@H](F)C[C@H]2C(=O)NCc2cccc(Cl)c2F)c2cnccc12 [Compound 74, (2S,4R)-N-(3-chloro-2-fluorobenzyl)-4-fluoro-1-(2-(3-(1-fluorovinyl)-1H-pyrazolo[3,4-c]pyridin-1-yl)acetyl)pyrrolidine-2-carboxamide]
< 1000 | O=C(NCc1cccc(Cl)c1F)[C@@H]1C[C@@H](F)CN1C(=O)Cn1nc(-c2cnc[nH]2)c2ccncc21 [Compound 75, (2S,4R)-1-(2-(3-(1H-imidazol-5-yl)-1H-pyrazolo[3,4-c]pyridin-1-yl)acetyl)-N-(3-chloro-2-fluorobenzyl)-4-fluoropyrrolidine-2-carboxamide]
< 1000 | NS(=O)(=O)c1cn(CC(=O)N2C[C@H](F)C[C@H]2C(=O)NCc2cccc(Cl)c2F)c2ccccc12 [Compound 76, (2S,4R)-N-(3-chloro-2-fluorobenzyl)-4-fluoro-1-(2-(3-sulfamoyl-1H-indol-1-yl)acetyl)pyrrolidine-2-carboxamide]
< 1000 | NC(=O)c1nn(CC(=O)N2C[C@H](F)C[C@H]2C(=O)Nc2cccc(-c3cc(F)c(F)cc3Cl)c2F)c2cnccc12 [Compound 83, 1-(2-((2S,4R)-2-(2′-chloro-2,4′,5′-trifluorobiphenyl-3-ylcarbamoyl)-4-fluoropyrrolidin-1-yl)-2-oxoethyl)-1H-pyrazolo[3,4-c]pyridine-3-carboxamide]
